| Structure (SMILES) | logP |
| --- | --- |
| CN1C(=O)CC(=O)N(c2ccccc2)c2cc(Cl)ccc21 | 2.12 |
| N#Cc1ccc(C(=O)O)cc1 | 1.56 |
| CNc1ccc(S(N)(=O)=O)cc1 | 0.08 |
| FC(F)(F)c1ccccc1 | 3.01 |
| CC(=O)c1ccc(Cl)cc1 | 2.32 |
| C1CO1 | -0.3 |
| O=[N+]([O-])c1cccc2c1c([N+](=O)[O-])cc[n+]2[O-] | 0.95 |
| CC#N | -0.34 |
| c1ccc2cc3ccccc3cc2c1 | 4.45 |
| Nc1ccc(C(=O)O)c(O)c1 | 0.89 |
| CNC(=O)Oc1cccc([N+](=O)[O-])c1 | 1.39 |
| Cc1ccc2c(c1)c([N+](=O)[O-])cc[n+]2[O-] | 1.43 |
| CNS(=O)(=O)c1ccc(N)cc1 | -0.01 |
| CCC(=O)c1ccccc1 | 2.19 |
| O=[N+]([O-])c1cc(Br)c(O)c(Br)c1 | 3.57 |
| NC(=O)c1cccnc1 | -0.37 |
| C1CCNC1 | 0.46 |
| Nc1ccccc1-c1ccccc1 | 2.84 |
| CC(=O)Nc1ccc([N+](=O)[O-])cc1 | 1.66 |
| COc1cc(C(=O)NN)ccn1 | -0.1 |
| O=C(Oc1ccccc1)c1ccccc1 | 3.59 |
| Cc1ccc([N+](=O)[O-])cc1 | 2.37 |
| Nc1nc(O)c2ncn([C@H]3CC[C@@H](CO)O3)c2n1 | -1.01 |
| O=C(O)c1cc(I)cc(I)c1O | 4.56 |
| O=C(O)COc1ccccc1Cl | 1.86 |
| O=c1[nH]c2ccccc2n1CCCN1CCC(n2c(=O)[nH]c3cc(Cl)ccc32)CC1 | 3.9 |

| Structure (SMILES) | logP |
| --- | --- |
| CC/C(=C(/CC)c1ccc(O)cc1)c1ccc(O)cc1 | 5.07 |
| CCCN(CCC)CCC | 2.79 |
| N#Cc1ccc(O)cc1 | 1.6 |
| CC(C)NCC(O)COc1cccc2[nH]ccc12 (configuration not stated) | 1.75 |
| CC(=O)Nc1ccccc1 | 1.16 |
| O=C(O)c1c(O)cccc1O | 2.2 |
| Oc1cc(O)cc(O)c1 | 0.16 |
| O=c1ccn([C@H]2C[C@H](F)[C@@H](CO)O2)c(=O)[nH]1 | -0.49 |
| NC(=O)c1ccc([N+](=O)[O-])cc1 | 0.82 |
| COc1ccc(C(C)=O)cc1 | 1.74 |
| CC(=O)c1ccccn1 | 0.85 |
| c1cnccn1 | -0.26 |
| Cc1ccc2[nH]ccc2c1 | 2.68 |
| CN(C)N=O | -0.57 |
| c1ccc2[nH]ccc2c1 | 2.14 |
| Cc1ccc(C)c2c(C)cccc12 | 4.9 |
| CC=Cc1ccccc1 | 3.35 |
| CCc1ccc(O)cc1 | 2.58 |
| CCC(Cc1ccccn1)C(N)=O (configuration not stated) | -0.01 |
| CN1c2ccccc2C=CC1O (configuration not stated) | 1.45 |
| NNC(=O)c1ccnc(Cl)c1 | 0.11 |
| CNC(=O)Oc1ccc(F)cc1 | 1.28 |
| O=C1C=CC(=O)C=C1 | 0.2 |
| NC(N)=O | -2.11 |
| COc1cc(CCN)cc(OC)c1OC | 0.78 |
| c1ncc2[nH]cnc2n1 | -0.37 |

| Structure (SMILES) | logP |
| --- | --- |
| CC(=O)C(C#N)=NNc1ccccc1Cl | 4 |
| CC(C)(c1ccc(O)cc1)c1ccc(O)cc1 | 3.32 |
| NC(=O)CCCn1nnc2ccccc21 | 0.37 |
| O=C1NS(=O)(=O)c2ccccc21 | 0.91 |
| c1ccoc1 | 1.34 |
| CNC1(c2ccccc2Cl)CCCCC1=O (configuration not stated) | 2.18 |
| Cc1ccc2cc(C)c(C)cc2c1 | 4.73 |
| COc1ccc(NS(=O)(=O)c2ccc(N)cc2)cc1 | 1.51 |
| CN(C)C(=O)Nc1ccccc1 | 0.98 |
| NS(=O)(=O)c1cccc(Cl)c1 | 1.29 |
| CBr | 1.19 |
| O=C1CC2OCC=C3CN4CC[C@]56c7ccccc7N1C5[C@H]2[C@H]3C[C@H]46 (some centres not stated) | 1.93 |
| CCc1ccccn1 | 1.69 |
| Cc1cc([N+](=O)[O-])c2ccccc2[n+]1[O-] | 1.25 |
| COC(=O)C(C#N)=NNc1cc(Cl)c(Cl)cc1Cl | 5.15 |
| Cc1cnc(NC(=O)C2=C(O)c3ccccc3S(=O)(=O)N2C)s1 | 3.43 |
| NNC(=O)c1ccncc1 | -0.7 |
| NS(=O)(=O)c1ccccc1 | 0.31 |
| O=C(O)COc1ccc(Cl)cc1 | 2.25 |
| O=C(O)c1cccc(O)c1 | 1.5 |
| c1ccc2c(c1)ccc1c3ccccc3ccc21 | 5.81 |
| N[C@@H](Cc1c[nH]c2ccccc12)C(=O)O | -1.06 |
| Cc1c(C)c(C)c(C)c(C)c1C | 5.11 |
| CCN(CC)N=O | 0.48 |
| O=c1cn[nH]c(=O)[nH]1 | -0.59 |
| c1ccc(N2CCCCC2)cc1 | 2.98 |

| Structure (SMILES) | logP |
| --- | --- |
| CN(C)C(=O)COc1ccccc1 | 0.8 |
| O=C1NC(=O)C(c2ccccc2)(c2ccccc2)N1 | 2.47 |
| NNC(=O)c1ccccc1 | 0.19 |
| COC(=O)C(C#N)=NNc1ccc(Cl)c(C(F)F)c1 | 3.8 |
| ClC(Cl)(Cl)Cl | 2.83 |
| O=[N+]([O-])/C=C/c1cccc(O)c1 | 2.07 |
| CN1C(C(=O)Nc2ccccn2)=C(O)c2ccccc2S1(=O)=O | 3.06 |
| c1cncc([C@@H]2CCCCN2)c1 | 0.97 |
| Cc1ccc(C)c(O)c1 | 2.33 |
| OC1OC[C@@H](O)[C@@H](O)[C@H]1O (some centres not stated) | -2.32 |
| OCC(F)(F)F | 0.41 |
| CCCCCC(C)=O | 1.98 |
| CNC(=O)OC | -0.06 |
| Nc1ncnc2c1ncn2[C@H]1C[C@H](O)[C@@H](CO)O1 | -0.55 |
| CC(=O)C(C#N)=NNc1cc(Cl)cc(Cl)c1 | 4.68 |
| CCCCCCCN | 2.57 |
| CC1CCC(NC(=O)N(CCCl)N=O)CC1 (configuration not stated) | 3.3 |
| O=Nc1c(O)ccc2ccccc12 | 2.28 |
| O=C(O)c1cccc([N+](=O)[O-])c1 | 1.83 |
| NCC(F)(F)F | 0.24 |
| Nc1ccccc1Cl | 1.9 |
| COc1ccc(CC(=O)O)cc1 | 1.42 |
| CC(C)(C)[N+](=O)[O-] | 1.17 |
| O=c1ccn([C@H]2CC[C@@H](CO)O2)c(=O)[nH]1 | -1 |
| O=S(=O)(c1ccccc1)c1ccccc1 | 2.4 |
| Cc1c[nH]c2ccccc12 | 2.6 |

| Structure (SMILES) | logP |
| --- | --- |
| CCc1ccccc1C | 3.53 |
| CCOC(=O)C(C#N)=NNc1cc(Cl)c(Cl)c(Cl)c1 | 5.03 |
| COc1ccc2[nH]ccc2c1 | 2.06 |
| Cc1cccc2c([N+](=O)[O-])cc[n+]([O-])c12 | 1.59 |
| Cc1cn([C@H]2C[C@H](O)[C@@H](CO)O2)c(=O)[nH]c1=O | -0.93 |
| O=C(O)COc1ccccc1Br | 2.04 |
| O/N=C/c1ccccc1 | 1.75 |
| c1ccc2nc3ccccc3cc2c1 | 3.4 |
| O=C(O)c1cc(Br)ccc1O | 3.23 |
| Nc1ccc(C(=O)O)c([N+](=O)[O-])c1 | 0.38 |
| O=C(O)COc1cccc(Br)c1 | 2.22 |
| CCCC | 2.89 |
| NC12CC3CC(CC(C3)C1)C2 | 2.44 |
| O=C(O)c1ccc(O)cc1O | 1.63 |
| Nc1ccc(S(=O)(=O)Nc2nccs2)cc1 | 0.05 |
| CC(CN1CCOCC1)C(C(=O)N1CCCC1)(c1ccccc1)c1ccccc1 (configuration not stated) | 3.61 |
| O=C1C=CC(=NO)C=C1 | 1.08 |
| Oc1ccccc1I | 2.65 |
| c1ccc2c(c1)[nH]c1ccccc12 | 3.72 |
| C/C=N/O | -0.13 |
| COC(=O)C(C#N)=NNc1cc(C(F)(F)F)ccc1[N+](=O)[O-] | 3.44 |
| CCN(CC)CCOC(=O)c1ccc(N)cc1 | 2.14 |
| NS(=O)(=O)c1cc2c(cc1Cl)N=CNS2(=O)=O | -0.24 |
| CCCCc1ccc(S(N)(=O)=O)cc1 | 2.45 |
| COC(=O)c1cccnc1 | 0.83 |
| Nc1nc(N)c2ncn([C@H]3C[C@H](O)[C@@H](CO)O3)c2n1 | -0.52 |

| Structure (SMILES) | logP |
| --- | --- |
| Cc1cccc(O)c1 | 1.96 |
| NCCc1ccc(O)c(O)c1 | -0.98 |
| O=[N+]([O-])c1cc[n+]([O-])c2c(F)cccc12 | 1 |
| Cc1cccc(C)n1 | 1.68 |
| COC(=O)[C@H]1[C@@H](OC(=O)c2ccccc2)C[C@@H]2CC[C@H]1N2C | 2.3 |
| CC(=O)Oc1cccc(O)c1 | 1.23 |
| BrCBr | 1.7 |
| NC(=O)c1ccccc1O | 1.28 |
| Cc1cccc(C)c1 | 3.2 |
| O=c1ccn([C@H]2C[C@H](O)[C@@H](CO)O2)c(=O)[nH]1 | -1.51 |
| OCCCCCc1ccncc1 | 1.39 |
| COC(=O)C(C#N)=NNc1cccc(C(F)(F)F)c1 | 3.78 |
| Nc1ccn([C@H]2C[C@H](F)[C@@H](CO)O2)c(=O)n1 | -0.89 |
| CN | -0.57 |
| O=c1cccccc1O | 0.53 |
| Cc1ccc2cccc(C)c2c1 | 4.44 |
| C=C | 1.13 |
| CCOC(=O)Nc1ccccc1 | 2.3 |
| CN(c1ccccc1)c1ccccc1 | 3.9 |
| CNc1ccccc1 | 1.66 |
| CC(=O)c1ccc(OCC(=O)O)cc1 | 0.87 |
| c1ccc2c(c1)CCC2 | 3.18 |
| CNC(=O)Oc1cccc(C#N)c1 | 0.97 |
| O=C(O)c1cc([N+](=O)[O-])ccc1O | 2.34 |
| CC1(C)S[C@@H]2[C@H](NC(=O)C(C(=O)O)c3ccccc3)C(=O)N2[C@H]1C(=O)O (some centres not stated) | 1.13 |
| O=C(NC(CO)C(O)c1ccc([N+](=O)[O-])cc1)C(F)F (configuration not stated) | 0.42 |

| Structure (SMILES) | logP |
| --- | --- |
| CCOc1cccc(O)c1 | 1.98 |
| CN(C)S(=O)(=O)c1ccc(N)cc1 | 0.67 |
| CC(C)(C)COC(N)=O | 0.94 |
| Nc1nc2[nH]nnc2c(=O)[nH]1 | -0.71 |
| Oc1c(Br)cc(Br)c(O)c1Br | 4.37 |
| CC(=O)C(C#N)=NNc1ccc(Cl)cc1 | 4.1 |
| Oc1ccnc(S)n1 | -0.28 |
| COc1cc(CCN)cc(OC)c1Br | 2.03 |
| CN(C)c1ccc(S(N)(=O)=O)cc1 | 0.76 |
| c1ccnnc1 | -0.72 |
| CCc1ccccc1O | 2.47 |
| O=[N+]([O-])c1cccc(O)c1 | 2 |
| COc1ccc(C(=O)O)cc1 | 1.96 |
| [N-]=[N+]=N[C@H]1C[C@H](n2ccc(=O)[nH]c2=O)O[C@@H]1CO | -0.32 |
| O=C(O)c1ccc(F)cc1 | 2.07 |
| CN(Cc1ccccc1)c1ccccc1 | 4.22 |
| CC(=O)Nc1ccccc1C(=O)O | 1.88 |
| C[N+]1([O-])C2CCC1CC(OC(=O)C(CO)c1ccccc1)C2 (configuration not stated) | 0.98 |
| CN(C)C(=O)Nc1ccc(Cl)cc1 | 1.94 |
| CCCC[N+](=O)[O-] | 1.47 |
| CCCCCBr | 3.37 |

From the SangsterLogP compilation
